Laboratory results as given in patent US6268391A, “Benzylidene-1,3-dihydro-indol-2-one derivatives a receptor tyrosine kinase inhibitors, particularly of Raf kinases” (Glaxo Wellcome Inc., priority 1997, dated 2001).

These compounds were tested against T1, Human cRaf1 (Homo sapiens, UniProt P04049) (assay: Raf kinase assay (cRaf1 assay / Raf/MEK cascade assay)). Settings: Table 3; read-out: Raf Kinase activity.
T1 construct: poly-histidine (C); made in house
Assay type: biochemical
Procedure: The potency of cRaf1 dependent kinase activity was measured using one of two assay formats. The first measured cRaf1 catalyzed phosphorylation of MEK1, the natural substrate for cRaf1. This assay is referred to as the cRaf1 assay. The second measured the ability of cRaf1 to phosphorylate and activate MEK1. This assay is referred to as the Raf/MEK cascade assay.
Human cRaf1 tagged with poly histidine at the carboxyterminus was expressed in a baculovirus expression system and purfied by Ni chelate affinity chromatography. Human MEK1 was expressed in E. coli as a fusion protein with Glutathione-S-transferase, and purified by glutathione sepharose affinity chromatography. […] Reactions contained cRaf1 (20 nM), MEK1 (100-500 nM), [γ-^32 P]ATP ([…]), Mg^2+ (10 mM), MOPS (50 mM, pH 7.5). Reactions were incubated at room temperature for periods of time ranging from 20-120 minutes. Inhibitors were diluted in 100% DMSO prior to addition to the assay. Reactions were terminated with an equal volume of 0.5% phosphoric acid. MEK1 phosphorylation was detected by scintillation counting following collection of protein onto phosphocellulose filters.
Human cRaf1 and MEK1 were purified as described above. A peptide substrate phosphorylated by MEK1 was used as the final phosphoryl group acceptor. […] Assay conditions were the same as those described above except for the following modifications. Reactions contained cRaf1 (1-5 nM), MEK1 (60 nM), and peptide ([…]).

T1 sequence (P04049 whole entry): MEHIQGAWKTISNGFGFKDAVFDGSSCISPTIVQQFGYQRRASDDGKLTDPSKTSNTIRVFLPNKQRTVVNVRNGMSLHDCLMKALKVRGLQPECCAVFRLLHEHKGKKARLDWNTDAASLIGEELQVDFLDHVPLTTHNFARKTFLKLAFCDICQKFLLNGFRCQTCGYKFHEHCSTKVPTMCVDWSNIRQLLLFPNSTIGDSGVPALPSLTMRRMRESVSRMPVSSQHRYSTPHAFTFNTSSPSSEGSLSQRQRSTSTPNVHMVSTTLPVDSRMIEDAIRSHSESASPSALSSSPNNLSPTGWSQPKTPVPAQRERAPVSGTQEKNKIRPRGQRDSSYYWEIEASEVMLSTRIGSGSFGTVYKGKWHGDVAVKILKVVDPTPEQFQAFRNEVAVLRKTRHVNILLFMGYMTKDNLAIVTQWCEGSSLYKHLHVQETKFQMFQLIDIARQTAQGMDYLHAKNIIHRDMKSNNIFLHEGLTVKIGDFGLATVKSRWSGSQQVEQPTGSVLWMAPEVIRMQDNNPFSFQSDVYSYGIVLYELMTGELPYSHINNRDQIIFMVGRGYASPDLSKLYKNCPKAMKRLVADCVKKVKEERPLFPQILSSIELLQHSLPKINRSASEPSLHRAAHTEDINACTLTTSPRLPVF

SMILES | IC50
CN(CC(N)=O)CC(=O)c1ccc2c(c1)C(=Cc1cc(Br)c(O)c(Br)c1)C(=O)N2 [Example 69, 2-(N-{3-[3-(3,5 Dibromo-4-hydroxy-benzylidene)-2-oxo-2,3-dihydro-1H-indol-5-yl]-2-oxo-ethyl}-N-methyl-amino)-acetamide] | < 1000 nM
O=C1Nc2ccc(C(=O)CN(CCO)CCCO)cc2C1=Cc1cc(Br)c(O)c(Br)c1 [Example 70, 3-(3,5-Dibromo-4-hydroxy-benzylidene)-5-{2-[(N-2-hydroxy-ethyl)-N-(3-hydroxy-propyl)-amino]-acetyl}-1,3-dihydro-indol-2-one] | < 1000 nM
O=C1Nc2ccc(C(=O)CN3CCSCC3)cc2C1=Cc1cc(Br)c(O)c(Br)c1 [Example 72] | < 1000 nM
O=C1Nc2ccc(C(=O)CN3CCOCC3)cc2C1=Cc1cc(Br)c(O)c(Br)c1 [Example 73] | < 1000 nM
O=C1Nc2ccc(C(=O)CN(CCO)CCO)cc2C1=Cc1cc(Br)c(O)c(Br)c1 [Example 74, 5-{2-[Bis-(2-hydroxy-ethyl)-amino]-acetyl}-3-(3,5-dibromo-4-hydroxy-benzylidene)-1,3-dihydro-indol-2-one] | < 1000 nM
CN(CCO)CC(=O)c1ccc2c(c1)C(=Cc1cc(Br)c(O)c(Br)c1)C(=O)N2 [Example 75] | < 1000 nM
O=C1Nc2ccc(C(=O)CN3CCSC3)cc2C1=Cc1cc(Br)c(O)c(Br)c1 [Example 76, 3-(3,5-Dibromo-4-hydroxy-benzylidene)-5-(2-(thiazolidin-3-yl)-acetyl)-1,3-dihydro-indol-2-one] | < 1000 nM
O=C1Nc2ccc(C(=O)C[n+]3ccccc3)cc2C1=Cc1cc(Br)c(O)c(Br)c1 [Example 77, 3-(3,5-Dibromo-4-hydroxy-benzylidene)-5-(2-(N-pyridinium)-acetyl)-1,3-dihydro-indol-2-one chloride] | < 1000 nM
CC(C)(C)C(=O)OCOc1c(Br)cc(C=C2C(=O)Nc3ccc(I)cc32)cc1Br [Example 80, 2,2-Dimethyl-propionic acid,2,6-dibromo-4-(5-iodo-2-oxo-1,3-dihydro-indol-3-ylidenemethyl)-phenoxymethyl ester] | 10000 to 100000 nM
CCN(CC)CC(=O)c1ccc2c(c1)C(=Cc1cc(Br)c(O)c(Br)c1)C(=O)N2 [Example 83, 3-(3,5-Dibromo-4-hydroxy-benzylidene)-5-(2-diethylamino-acetyl)-1,3-dihydro-indol-2-one] | < 1000 nM
O=C1Nc2c(I)cc(C(=O)CCl)cc2C1=Cc1cc(Br)c(O)c(Br)c1 [Example 86, 5-(2-Chloro-acetyl)-3-(3,5-dibromo-4-hydroxy-benzylidene)-7-iodo-1,3-dihydro-indol-2-one] | < 1000 nM
O=C1Nc2ccc(I)cc2C1=Cc1cc(Br)c(OC(=O)N(CCO)CCO)c(Br)c1 [Example 87, N-[bis-(2-hydroxy-ethyl)]carbamic acid, 2,6-dibromo-4-(5-iodo-2-oxo-1,3-dihydro-indol-3-ylidenemethyl) phenyl ester] | 10000 to 100000 nM
COc1cccc(C(=O)c2ccc3c(c2)C(=Cc2cc(Br)c(O)c(Br)c2)C(=O)N3)c1 [Example 91, 3-(3,5-Dibromo-4-hydroxy-benzylidene)-5-(3-methoxy-benzoyl)-1,3-dihydro-indol-2-one] | < 1000 nM
O=C1Nc2ccc(-c3ccccc3)cc2C1=Cc1cc(Br)c(O)c(Br)c1 [Example 92, 3-(3,5-Dibromo-4-hydroxy-benzylidene)-5-phenyl-1,3-dihydro-indol-2-one] | < 1000 nM
CCNc1nc(-c2ccc3c(c2)C(=Cc2cc(Br)c(O)c(Br)c2)C(=O)N3)cs1 [Example 94, 3-(3,5-Dibromo-4-hydroxy-benzylidene)-5-(2-(ethylamino)-4H-thiazol-4-yl)-1,3-dihydro-indol-2-one] | < 1000 nM
O=C1Nc2ccc(C(=O)c3ccc([N+](=O)[O-])cc3)cc2C1=Cc1cc(Br)c(O)c(Br)c1 [Example 95, 3-(3,5-Dibromo-4-hydroxy-benzylidene)-5-(4-nitro-benzoyl)-1,3-dihydro-indol-2-one] | < 1000 nM
O=C1Nc2ccc(C(=O)c3cccc([N+](=O)[O-])c3)cc2C1=Cc1cc(Br)c(O)c(Br)c1 [Example 96, 3-(3,5-Dibromo-4-hydroxy-benzylidene)-5-(3-nitro-benzoyl)-1,3-dihydro-indol-2-one] | < 1000 nM
O=C1Nc2ccc(C(=NO)c3ccccc3)cc2C1=Cc1cc(Br)c(O)c(Br)c1 [Example 97, 3-(3,5-Dibromo-4-hydroxy-benzylidene)-5-((hydroxyimino)-phenyl-methyl)-1,3-dihydro-indol-2-one] | < 1000 nM
COc1cc(C=C2C(=O)Nc3ccccc32)cc([N+](=O)[O-])c1O [Example 101, 3-(4-Hydroxy-3-methoxy-5-nitro-benzylidene)-1,3-dihydro-indol-2-one] | 1000 to 10000 nM
COc1cc(C=C2C(=O)Nc3ccccc32)cc(I)c1O [Example 102, 3-(4-Hydroxy-3-iodo-5-methoxy-benzylidene)-1,3-dihydro-indol-2-one] | 1000 to 10000 nM
CC(C)N(C(=O)Oc1c(Br)cc(C=C2C(=O)Nc3ccc(Cl)cc32)cc1Br)C(C)C [Example 106, 2,6-Dibromo-4-[(5-chloro-2-oxo-1,2-dihydro-3H-indol-3-ylidene)methyl]phenyl N,N-diisopropylcarbamate] | 10000 to 100000 nM
CCN(CCO)CC(=O)c1ccc2c(c1)C(=Cc1cc(Br)c(O)c(Br)c1)C(=O)N2 [Example 108, 3-(3,5-Dibromo-4-hydroxy-benzylidene)-5-{2-[N-ethyl-N-(2-hydroxy-ethyl)-amino]-acetyl}-1,3-dihydro-indol-2-one] | < 1000 nM
O=C1Nc2c(F)cccc2C1=Cc1cc(Br)c(O)c(Br)c1 [Example 109, 3-(3,5-Dibromo-4-hydroxy-benzylidene)-7-fluoro-1,3-dihydro-indol-2-one] | < 1000 nM

Now from value to compound:

IC50 | SMILES
< 1000 nM | CCOc1cc(C=C2C(=O)Nc3ccc([N+](=O)[O-])cc32)cc(Br)c1O [Example 68, 3-(3-Bromo-5-ethoxy-4-hydroxy-benzylidene)-5-nitro-1,3-dihydro-indol-2-one]
< 1000 nM | O=C1Nc2ccc(Br)cc2C1=Cc1cc(Br)c(O)c(Br)c1 [Example 81, 5-Bromo-3-(3,5-dibromo-4-hydroxy-benzylidene)-1,3-dihydro-indol-2-one]
< 1000 nM | COc1cc(C=C2C(=O)Nc3ccc(Br)cc32)cc(Cl)c1O [Example 82, 5-Bromo-3-(3-chloro-4-hydroxy-5-methoxy-benzylidene)-1,3-dihydro-indol-2-one]
< 1000 nM | O=C1Nc2ccc(C(=O)CCl)cc2C1=Cc1cc(Cl)c(O)c(Cl)c1 [Example 88, 5-(2-Chloro-acetyl)-3-(3,5-dichloro-4-hydroxy-benzylidene)-1,3-dihydro-indol-2-one]
< 1000 nM | CC(=O)c1ccc2c(c1)C(=Cc1cc(Br)c(O)c(Br)c1)C(=O)N2 [Example 89, 5-Acetyl-3-(3,5-dibromo-4-hydroxy-benzylidene)-1,3-dihydro-indol-2-one]
< 1000 nM | CC(=O)c1ccc2c(c1)C(=Cc1cc(Cl)c(O)c(Cl)c1)C(=O)N2 [Example 90, 5-Acetyl-3-(3,5-dichloro-4-hydroxy-benzylidene)-1,3-dihydro-indol-2-one]
< 1000 nM | O=C1Nc2ccc(-c3ccccc3)cc2C1=Cc1cc(Cl)c(O)c(Cl)c1 [Example 93, 3-(3,5-Dichloro-4-hydroxy-benzylidene)-5-phenyl-1,3-dihydro-indol-2-one]
< 1000 nM | CCC(=O)c1ccc2c(c1)C(=Cc1cc(Cl)c(O)c(Cl)c1)C(=O)N2 [Example 98, 3-(3,5-Dichloro-4-hydroxy-benzylidene)-5-propionyl-1,3-dihydro-indol-2-one]
< 1000 nM | NS(=O)(=O)c1ccc2c(c1)C(=Cc1cc(Cl)c(O)c(Cl)c1)C(=O)N2 [Example 99, 3-(3,5-Dichloro-4-hydroxy-benzylidene)-2-oxo-2,3-dihydro-1H-indole-5-sulfonic acid amide]
< 1000 nM | O=C1Nc2ccc(S(=O)(=O)N3CCCC3)cc2C1=Cc1cc(Cl)c(O)c(Cl)c1 [Example 100, 3-(3,5-Dichloro-4-hydroxy-benzylidene)-5-(pyrrolidine-1-sulfonyl)-1,3-dihydro-indol-2-one]
10000 to 100000 nM | CC(=O)Oc1c(Br)cc(C=C2C(=O)Nc3ccc(Cl)cc32)cc1Br [Example 103, 2,6-Dibromo-4-[(5-chloro-2-oxo-1,2-dihydro-3H-indol-3-ylidene)methyl]phenyl acetate]
< 1000 nM | COc1cc(C=C2C(=O)Nc3ccc(I)cc32)cc([N+](=O)[O-])c1O [Example 104, 3-(4-Hydroxy-3-methoxy-5-nitro-benzylidene)-5-iodo-1,3-dihydro-indol-2-one]
< 1000 nM | O=C1Nc2ccc([N+](=O)[O-])cc2C1=Cc1cc(O)c(O)c(Cl)c1 [Example 105, 3-(3-Chloro-4,5-dihydroxy-benzylidene)-5-nitro-1,3-dihydro-indol-2-one]
< 1000 nM | CN(C)CC(=O)c1ccc2c(c1)C(=Cc1cc(Br)c(O)c(Br)c1)C(=O)N2 [Example 107, 3-(3,5-Dibromo-4-hydroxy-benzylidene)-5-(2-dimethylamino-acetyl)-1,3-dihydro-indol-2-one]
